From patent publication US10442835B2, “Water-soluble rapamycin derivatives” (Zhejiang Hisun Pharmaceutical Co., Ltd., priority 2016, dated 2019)
“And” between values parts separate entries of the source, which are not always exact repeats. Equal values may be shown once.

Tests used:
[1] = test system: human lung cancer cell NCI-H460; experiment: In vivo inhibitory activity against NCI-H460 tumor in nude mice; settings: everolimus 5 mg/kg, compound I-1 6.8 mg/kg, qw 4×
[2] = test system: prostate cancer cell DU145; experiment: In vitro activity assay, growth of DU145; assay type: cell-based; settings: Homo sapiens; DU-145; 48 h
Excerpt: (§1) The anti-tumor activity and toxicity of the compounds according to the present invention can be assayed through standard operational procedures of pharmacological experiment. The experiments carried out herein can test the inhibitory effect of the compounds according to the present invention on the growth of human liver cancer cell HepG2, lung cancer cell NCI460, prostate cancer cell DU145, prostate cancer cell PC3, and human breast cancer cell MDA-MB-435. The operational procedure used is briefly described below by taking the inhibitory activity assay against human liver cancer cell HepG2 as an example.
(§2) The operational procedure for the assay is as follows:
(§3) 1. Cells after being trypsinized were inoculated in 96-well plates at a concentration of 10^4 cells/well, and allowed to grow in a medium with a final volume of 200 μL. The 96-well plates after inoculation are allowed to stand for 24 hours at 37° C., in order to allow the cells to adhere to the surface of the wells.
(§4) 2. The medium was removed by carefully pipetting without disturbing the cell monolayer. 200 μL Fresh medium was added into each well. It is arranged to make it possible to collect samples from enough wells to run the experiments in triplicate.
(§5) 3. The compounds to be tested according to the present invention were dissolved into 10 μL phosphate buffered solution (PBS) and incubated for 48 h at 37° C.
(§6) 4. In the last 6 h of incubation, cells in each well of the 96-well plates were labeled by 1 microcurie T thymidine (New England Nuclear thymidine), by adding 10 μL PBS containing 1 microcurie T thymidine (which was added into the PBS on the day of collecting the samples for test). The 96-well plates were then returned to the incubator and incubated for the last 6 h.
(§7) 5. Without disturbing the cell monolayer, the radioactive medium was removed by pipetting. Then 50 μL of BRL 10×trypsin was added to each well, followed by incubation at 37° C. for 10 minutes or until the cell monolayer was detached from the bottom (or the wall) of each well. Samples were collected on glass-fiber diskettes using a Skatron 96-well cell harvester. Cells depositing on the glass-fiber diskettes were counted in a Wallac Betaplate counter.

[3] = test system: human liver cancer cell HepG2; experiment: In vitro activity assay, growth of HepG2 (thymidine incorporation); assay type: cell-based; settings: 48 h
Excerpt: as §1
Human liver cancer cell HepG2 grew in the follow medium:
Preparation of the growth medium: BRL minimum essential medium with Earle Salts (500 mL), with the addition of the following agents:
as §2, §3, §4, §5, §6, §7

[4] = test system: human breast cancer cell MDA-MB-435; experiment: In vitro activity assay, growth of MDA-MB-435; assay type: cell-based; settings: 48 h
Excerpt: as §1, §2, §3, §4, §5, §6, §7

[5] = Body weight of DU145 tumor nude mice; settings: 3×/w, 4 w;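 also: dosing started once xenografts reached 150-200 mm^3, with mice randomized into three groups, loss of body weight served as an indirect sign of drug toxicity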
Protocol: DU145 (the 3rd generation) tumors in the rapid proliferation stage inoculated in the axilla of nude mice were cut into tumor lumps with a size of 1 mm*1 mm*1 mm and then were inoculated subcutaneously to the right limb of nude mice using a trocar under a sterile condition. When the tumors grow to 150-200 mm^3, the mice were randomly divided into three groups and then administrated with the compounds for 4 weeks. The major diameter (a) and the minor diameter (b) of the tumors were measured 2 or 3 times a week. The tumor volume (TV) was calculated with the following equation: TV=½×a×b^2. Tumors were stripped and weighted at Day 28 and the tumor inhibition rate was calculated using the following equation: (tumor weight of control−tumor weight of experimental group)/tumor weight of control×100%.
The nude mice were divided into 3 groups with 4 mice per group when the tumors averagely grew to about 185-200 mm^3, depending on the growth regularity of the tumor and the dosage regimen.
G1: positive drug group: Everolimus (5 mg/kg, qw, 4 w, 3×/w); administration route: intragastrical administration;

[6] = Day 3, G2 compound I-1 3.4 mg/kg tail vein injection
[7] = Day 3, G3 compound I-1 1.7 mg/kg tail vein injection
[8] = Day 7, G2 compound I-1 3.4 mg/kg tail vein injection
[9] = Day 7, G3 compound I-1 1.7 mg/kg tail vein injection
[10] = Day 10, G2 compound I-1 3.4 mg/kg tail vein injection
[11] = Day 10, G3 compound I-1 1.7 mg/kg tail vein injection
[12] = Day 14, G2 compound I-1 3.4 mg/kg tail vein injection
[13] = Day 14, G3 compound I-1 1.7 mg/kg tail vein injection
[14] = Day 17, G2 compound I-1 3.4 mg/kg tail vein injection
[15] = Day 17, G3 compound I-1 1.7 mg/kg tail vein injection
[16] = Day 21, G2 compound I-1 3.4 mg/kg tail vein injection
[17] = Day 21, G3 compound I-1 1.7 mg/kg tail vein injection
[18] = Day 24, G2 compound I-1 3.4 mg/kg tail vein injection
[19] = Day 24, G3 compound I-1 1.7 mg/kg tail vein injection
[20] = Day 28, G2 compound I-1 3.4 mg/kg tail vein injection

CO[C@H]1C[C@@H]2CC[C@@H](C)[C@@](O)(O2)C(=O)C(=O)N2CCCC[C@H]2C(=O)OC([C@H](C)C[C@@H]2CC[C@@H](OCCOC(=O)CSC[C@H](NC(=O)CC[C@H](N)C(=O)O)C(=O)NCC(=O)O)[C@H](OC)C2)CC(=O)[C@H](C)/C=C(\C)[C@@H](O)[C@@H](OC)C(=O)[C@H](C)C[C@@H](C)\C=C/C=C/C=C/1C (stereo partly shown) [Compound I-1]
Mean Volume of Tumor ([1]; Day 0): 195.1545 mm^3 | Mean Volume of Tumor ([1]; Day 3): 232.4297 mm^3 | Mean Volume of Tumor ([1]; Day 7): 273.2138 mm^3 | Mean Volume of Tumor ([1]; Day 10): 360.0897 mm^3 | Mean Volume of Tumor ([1]; Day 14): 506.8288 mm^3 | Mean Volume of Tumor ([1]; Day 17): 612.8810 mm^3 | Mean Volume of Tumor ([1]; Day 21): 934.2806 mm^3 | Mean Volume of Tumor ([1]; Day 24): 1089.1761 mm^3 | Tumor Inhibition Rate ([1]; Day 28, by tumor weight): 68% and 68.29% | Mean Volume of Tumor ([1]; Day 28): 1354.8457 mm^3 | Tumor Weight ± SD ([1]; Day 28): 0.8463 ± 0.1582 g | IC50 [2]: 56.215 ± 0.003 µM | IC50 [3]: 11.127 ± 0.005 µM | IC50 [4]: 55.345 ± 0.005 µM | Body Weight, mean value ([5]; Day 0, G2 compound I-1 3.4 mg/kg tail vein injection): 25.30 g | Body Weight, mean value ([5]; Day 0, G3 compound I-1 1.7 mg/kg tail vein injection): 26.86 g | Body Weight, mean value [5, 6]: 25.92 g | Decrease rate (body weight) [5, 6]: −2.45% | Body Weight, mean value [5, 7]: 27.32 g | Decrease rate (body weight) [5, 7]: −1.70% | Decrease in body weight ([5]; Day 3 vs Day 0, G2 compound I-1 3.4 mg/kg tail vein injection): -0.62 g | Decrease in body weight ([5]; Day 3 vs Day 0, G3 compound I-1 1.7 mg/kg tail vein injection): -0.46 g | Body Weight, mean value [5, 8]: 26.13 g | Decrease rate (body weight) [5, 8]: −3.29% | Body Weight, mean value [5, 9]: 27.17 g | Decrease rate (body weight) [5, 9]: −1.16% | Decrease in body weight ([5]; Day 7 vs Day 0, G2 compound I-1 3.4 mg/kg tail vein injection): -0.83 g | Decrease in body weight ([5]; Day 7 vs Day 0, G3 compound I-1 1.7 mg/kg tail vein injection): -0.31 g | Body Weight, mean value [5, 10]: 26.15 g | Decrease rate (body weight) [5, 10]: −3.37% | Body Weight, mean value [5, 11]: 27.18 g | Decrease rate (body weight) [5, 11]: −1.18% | Decrease in body weight ([5]; Day 10 vs Day 0, G2 compound I-1 3.4 mg/kg tail vein injection): -0.85 g | Decrease in body weight ([5]; Day 10 vs Day 0, G3 compound I-1 1.7 mg/kg tail vein injection): -0.32 g | Body Weight, mean value [5, 12]: 26.59 g | Decrease rate (body weight) [5, 12]: −5.12% | Body Weight, mean value [5, 13]: 27.69 g | Decrease rate (body weight) [5, 13]: −3.10% | Decrease in body weight ([5]; Day 14 vs Day 0, G2 compound I-1 3.4 mg/kg tail vein injection): -1.30 g | Decrease in body weight ([5]; Day 14 vs Day 0, G3 compound I-1 1.7 mg/kg tail vein injection): -0.83 g | Body Weight, mean value [5, 14]: 26.34 g | Decrease rate (body weight) [5, 14]: −4.12% | Body Weight, mean value [5, 15]: 27.81 g | Decrease rate (body weight) [5, 15]: −3.54% | Decrease in body weight ([5]; Day 17 vs Day 0, G2 compound I-1 3.4 mg/kg tail vein injection): -1.04 g | Decrease in body weight ([5]; Day 17 vs Day 0, G3 compound I-1 1.7 mg/kg tail vein injection): -0.95 g | Body Weight, mean value [5, 16]: 26.84 g | Decrease rate (body weight) [5, 16]: −6.09% | Body Weight, mean value [5, 17]: 28.10 g | Decrease rate (body weight) [5, 17]: −4.61% | Decrease in body weight ([5]; Day 21 vs Day 0, G2 compound I-1 3.4 mg/kg tail vein injection): -1.54 g | Decrease in body weight ([5]; Day 21 vs Day 0, G3 compound I-1 1.7 mg/kg tail vein injection): -1.24 g | Body Weight, mean value [5, 18]: 26.58 g | Decrease rate (body weight) [5, 18]: −5.08% | Body Weight, mean value [5, 19]: 28.12 g | Decrease rate (body weight) [5, 19]: −4.68% | Decrease in body weight ([5]; Day 24 vs Day 0, G2 compound I-1 3.4 mg/kg tail vein injection): -1.29 g | Decrease in body weight ([5]; Day 24 vs Day 0, G3 compound I-1 1.7 mg/kg tail vein injection): -1.26 g | Body Weight, mean value [5, 20]: 26.96 g | Decrease rate (body weight) [5, 20]: −6.57% | Body Weight, mean value ([5]; Day 28, G3 compound I-1 1.7 mg/kg tail vein injection): 28.27 g
